For data set [1], the system named is naïve mice. The data set is described as follows: Von Frey testing of mechanical thresholds in naïve mice (WT and knockout). The data set is classed as in vivo, mouse. The note with it: for mechanical sensory thresholds (von Frey): i.t. injection. As to the method:
(§1) Reflexive-based sensory testing in mice: All behavioral testing in mice was performed in a specialized humidity- and light-controlled mouse behavior facility maintained at 21-24° C., with testing conducted between the hours of 8:00-16:00. Mice were habituated to the testing environment for at least 2 days prior to baseline testing. All tests were performed by an experimenter who was blinded to experimental conditions, including genotypes and drug treatment. For multi-day experiments using STING agonists, mice were tested in the same room at approximately the same time each day. To measure mechanical sensitivity, mice were confined to individual chambers with non-transparent borders on an elevated mesh rack, preventing mice from visualizing or interacting with one another during the testing period. Mouse hindpaws were stimulated with a series of von Frey filaments with logarithmically increasing stiffness (0.02-2.56 g, Stoelting), which was applied perpendicularly to the central plantar surface. We determined the 50% paw withdrawal threshold using the up-down method. […] To test cold sensitivity, mice were again placed on an elevated metal mesh floor in isolated chambers, and a ˜20 μl acetone drop was applied to the central plantar surface of the mouse hindpaw using a pipette.
For the experiments utilizing i.t. 2′3′-cGAMP and 3′3′-cGAMP complexed with Lipofectamine 2000 (ThermoFisher, 11668), 10 μg 2′3′-cGAMP or 3′3′-cGAMP was incubated at room temperature for 30 minutes in sterile PBS with 3 μl Lipofectamine 2000. In this case, the vehicle control was 3 μl Lipofectamine 2000 in PBS, as in a previous study which used this approach. […] For experiments utilizing rabbit anti-IFN-α or -β neutralizing antibodies, a polyclonal rabbit IgG antibody served as the control. Antibodies were utilized in vivo at 300 ng/mouse or in vitro at 300 ng/ml. Paclitaxel was administered via repeated i.p. injections every other day for 4 days at a dose of 2 mg/kg. For the whole mount DRG recordings, young mice (4-6 weeks) were administered a single 6 mg/kg dose one week prior to the experiment. All intrathecal injections were performed under brief anesthesia with 2-2.5% isoflurane. Drugs administered by intrathecal injection were preceded by shaving a small area on the back corresponding to the injection site, followed by spinal puncture using a 30-gauge needle between the L5-L6 levels to deliver a maximum of 5-10 μl into the cerebrospinal fluid. Successful intrathecal injection was always confirmed by a brisk tail-flick upon delivery. For the experiments involving intraplantar (i.pl.) injection, IFN-α was dissolved in sterile saline and administered at the concentrations indicated in the figures in a total volume of 20 μl, administered under 2-2.5% isoflurane anesthesia to minimize animal stress. For these experiments, vehicle (saline) or IFN-α were slowly and carefully expressed into the left dorsal hindpaw of anesthetized mice and allowed to perfuse the tissue for ˜20 seconds prior to removal of the needle. […] Mechanical sensory testing was done anteriorly and care was taken to avoid Von Frey filament stimulation of the injection site.

Data set [2] concerns naïve mice. The data set is described as follows: Conditioned place preference (CPP) assay in naïve mice. The note with it: i.t., morphine 2 nmol, DMXAA or ADU-S100 35 nmol. The protocol:
(§2) All mice underwent 3 d of preconditioning habituation in a temperature- and humidity-controlled room under low-light conditions between 08:00-16:00 in a two compartment CPP chamber (Med Associates Inc.). The two compartments differed by both visual and tactile cues. On the 4th day, animal behavior was video-recorded using a webcam connected to a laptop computer, and animal movement was automatically tracked for 15 minutes using the ANY-Maze software (Stoelting). […] On the conditioning day(s) (day 5 for single trial; day 5-7 for repeated trials), two pairing sessions were performed, with vehicle pairing in the AM session and drug treatment (e.g., vehicle or drug) in the PM session, separated by 4 h. In the AM session, mice always received vehicle (10 μl saline, delivered via i.t. injection under isoflurane anesthesia) and were immediately placed in their preferred CPP chamber for 2 h. […] 24 h after the completion of the pairing experiments, mice were placed in the CPP test box with access to both chambers and behavior was recorded for 15 minutes and analyzed using the ANY-Maze software for chamber preference. CPP score was calculated as the inverse of the time spent in the preferred chamber according to: [post-preference (sec)—pre-preference (sec)]. Vehicle served as a negative control for these experiments, while morphine (three trials/naïve mice) or clonidine (single trial/ongoing pain) served as positive controls.

For data set [3], the system named is naïve mice. The data set is described as follows: Naloxone reversal of antinociception. Conditions: naloxone 10 mg/kg i.p.; morphine 2 nmol i.t., DMXAA or ADU-S100 35 nmol i.t. The data set is classed as in vivo, mouse. As to the method: Following naloxone delivery, mice were tested within 15 minutes. For the experiments testing whether mice developed tolerance to the effects of STING agonists, vehicle or DMXAA (35 nmol) were administered via i.t. injection. Naïve mice received five single injections at D0, D3, D6, D9, and D12, with testing each day 4 h after injection. SNI mice received injections on two consecutive days beginning on D7 (D7 and D8) and every 48 h afterwards following the conclusion of sensory testing (D10, D12, D14, D16, and D18). Spinal cords (L4-L5) were collected for analysis of glial cell activation at D21 following SNI.

The subject of data set [4] is rhesus macaques (Macaca mulatta). The note with it: comparison value; cited from earlier work.
A further data set deals with mice with CIPN or BCP. The data set is described as follows: Conditioned place preference (CPP) assay in chronic pain (CIPN and BCP) models. The data set is classed as in vivo, mouse. Conditions: mice with neuropathic pain (CIPN), i.t. 35 nmol. The protocol:
as §2

The nature of data set [5]: Solubility noted at drug preparation. The note with it: diluted in PBS containing 5% DMSO and 0.0625% Tween-20. The format is physicochemical. The protocol:
For the experiments utilizing i.t. 2′3′-cGAMP and 3′3′-cGAMP complexed with Lipofectamine 2000 (ThermoFisher, 11668), 10 μg 2′3′-cGAMP or 3′3′-cGAMP was incubated at room temperature for 30 minutes in sterile PBS with 3 μl Lipofectamine 2000. In this case, the vehicle control was 3 μl Lipofectamine 2000 in PBS, as in a previous study which used this approach. […] For experiments utilizing rabbit anti-IFN-α or -β neutralizing antibodies, a polyclonal rabbit IgG antibody served as the control. Antibodies were utilized in vivo at 300 ng/mouse or in vitro at 300 ng/ml. Paclitaxel was administered via repeated i.p. injections every other day for 4 days at a dose of 2 mg/kg. For the whole mount DRG recordings, young mice (4-6 weeks) were administered a single 6 mg/kg dose one week prior to the experiment. All intrathecal injections were performed under brief anesthesia with 2-2.5% isoflurane. Drugs administered by intrathecal injection were preceded by shaving a small area on the back corresponding to the injection site, followed by spinal puncture using a 30-gauge needle between the L5-L6 levels to deliver a maximum of 5-10 μl into the cerebrospinal fluid. Successful intrathecal injection was always confirmed by a brisk tail-flick upon delivery. […]

Data set [6] concerns Ifnar1+/+ and Ifnar1−/− mice. The format is in vivo, mouse. Conditions: i.t. IFN-α. The protocol:
as §1, with “pipette. […]” for “pipette.”

Data set [7] relates to mice with intrafemoral Lewis lung carcinoma (LLC). The data set is described as follows: LLC bone cancer pain model, systemic (i.p.) treatment, behavior tests and body weight. The format is in vivo, mouse. The protocol:
Bone cancer pain model. The murine cell lines LLC1, LL/2-Luc2 or E0771 were lightly digested using 0.05% trypsin, followed by centrifugation to remove poorly digested cell clusters. Cells were then resuspended in PBS at a concentration of 1×10^8 cells/ml. The inoculation was performed as previously described (Wang, K. et al. “PD-1 blockade inhibits osteoclast formation and murine bone cancer pain.” The Journal of clinical investigation, (2020); Wang, Z. et al. “Anti-PD-1 treatment impairs opioid antinociception in rodents and nonhuman primates.” Sci Transl Med 12 (2020)). Briefly, mice were anesthetized with 4% isoflurane and the left leg was shaved and the skin disinfected with 10% povidone-iodine and 75% ethanol. A superficial incision (0.5-1 cm) was made near the knee joint, exposing the patellar ligament. […] The syringe contents were slowly injected into the femoral cavity over a 2-minute interval. To prevent further leakage of tumor cells outside of the bone cavity, the outer injection site was sealed with silicone adhesive (Kwik-Sil, World Precision Instruments, US). Animals with surgery related movement dysfunction or with outside bone tumor injection were excluded from the study. Drug treatment. […] All other reagents were dissolved in sterile saline or PBS. For experiments utilizing rabbit anti-IFN-α or -β neutralizing antibodies, a polyclonal rabbit IgG antibody served as the control. […] Behavior tests. All the behavioral tests were conducted in a blinded manner and performed during between the hours of 9:00-16:00. Animals were habituated in a light and humidity controlled testing environment for at least 2 days prior to baseline testing. For Von Frey testing, mice were confined to individual 5×5 cm boxes placed on an elevated wire grid. A blinded experimenter stimulated their hindpaws using a series of von Frey filaments with logarithmically increasing stiffness (0.02-2.56 g, Stoelting). Each filament was applied perpendicularly to the central plantar surface. The 50% paw withdrawal threshold was determined using Dixon's up-down method.

The subject of a further data set is tumor-bearing femora. The data set is described as follows: Bone fractures of tumor-bearing femora on d17 after LLC inoculation. The format is in vivo, mouse. Conditions: vehicle 87.5%. The protocol:
Development and progression of cancer-induced osteolytic bone destruction frequently leads to bone fracture, which is an important component of SREs in patients with bone metastasis and is associated with decreased overall survival. On d17 after LLC inoculation, mice were euthanized and the tumor bearing femora were collected and the distal tumor-bearing femur where bone destruction occurs was analyzed.

The test system of data set [8] is naïve mice. The data set is described as follows: Hot plate test after resiniferatoxin ablation of TRPV1+ nociceptors. The data set is classed as in vivo, mouse. A general note: In hot-plate and tail-flick tests a longer latency is read as antinociception.

Entries after “also recorded” stand apart in the source; their conditions may differ.

In the case of `Nc1nc2c(ncn2[C@@H]2O[C@@H]3COP(=O)(O)O[C@H]4[C@@H](O)[C@H](n5cnc6c(N)ncnc65)O[C@@H]4COP(=O)(O)O[C@@H]2[C@@H]3O)c(=O)[nH]1` [2′3′-cGAMP, 2′3′ cyclic guanosine monophosphate—adenosine monophosphate], in the data set on naïve mice [1] (naïve mice), the “mechanical sensory thresholds (von Frey)” value is “induced dose-dependent antinociception; also recorded: elevated mechanical thresholds”.

With `CN1CC[C@]23c4c5ccc(O)c4O[C@H]2[C@@H](O)C=C[C@H]3[C@H]1C5` [morphine], in the data set on naïve mice [2], the “conditioned place preference, repeated pairing” value is reported as “induces CPP”. Further, the “effect of naloxone on the antinociception of the substance” value in the data set on naïve mice [3] is “reversed”. For the same molecule, the “intrathecal dose producing analgesia in NHPs” value in data set [4] was 100 nmol.

For the molecule `Clc1cccc(Cl)c1N=C1NCCN1` [clonidine], in the data set on mice with CIPN or BCP, the “conditioned place preference, single pairing” value is “robust CPP”.

In the case of `CCc1ccc(NC(=O)Nc2c[nH]c3ccccc23)cc1` [H-151], the “mechanical sensitivity after i.t. inhibitor or neutralizing antibody” value in the data set on naïve mice [1] (naïve mice, i.t.) is recorded as “transient dose-dependent hypersensitivity”. Moreover, the solubility result in data set [5] is “poor solubility”.

Take IFN-α: in the data set with naïve mice [1] (i.t.), the “antinociception in WT vs Ifnar1-gKO/cKO mice” value is “induced transient antinociception in WT mice which was abolished in Ifnar1-gKO/cKO mice” and the “mechanical hypersensitivity of STINGgt/gt mice” value is on record as “could transiently rescue mechanical hypersensitivity”. The “paw withdrawal thresholds after i.t. recombinant interferon” value (“paw withdrawal thresholds” below) with naïve mice [1] (naïve mice, i.t.) is listed as “increased paw withdrawal thresholds”. For the same molecule, the “paw withdrawal thresholds” value in the data set on naïve mice [1] (naïve mice, i.t., listed as IFN-a) was “induced transient, dose-dependent antinociception”. For the same molecule, in [6], the “mechanical hypersensitivity induced by intraplantar IFN-α” value is reported as “could block the mechanical hypersensitivity induced by intraplantar IFN-α”.

In the case of `Cn1cc(Nc2nccc(N3C[C@H]4CC[C@@H](C3)N4C(=O)[C@@H]3CC3(F)F)n2)cn1` [PF-06700841], in the data set on naïve mice [1] (naïve mice, i.t.), the “mechanical sensitivity after i.t. inhibitor or neutralizing antibody” value is recorded as “induced transient, dose-dependent mechanical allodynia”. In addition, the “effect of pretreatment on IFN-β-induced antinociception” value with naïve mice [1] (naïve mice, i.t., 1 μg) is “abolished IFN-β-induced antinociception”.

Take “IFN-β: recombinant mouse IFN-β produced in mammalian cells (PBL Assay Science, 12410-1)”: in the data set on naïve mice [1] (i.t.), the “antinociception in WT vs Ifnar1-gKO/cKO mice” value was “induced transient antinociception in WT mice which was abolished in Ifnar1-gKO/cKO mice” and the “mechanical hypersensitivity of STINGgt/gt mice” value is “could transiently rescue mechanical hypersensitivity”. In addition, the “paw withdrawal thresholds” value in the data set on naïve mice [1] (naïve mice, i.t.) is listed as “induced transient, dose-dependent antinociception; also recorded: increased paw withdrawal thresholds”.

Turning to `O=C(Nc1ccc(I)cc1)c1ccc([N+](=O)[O-])o1` [C-176], the “mechanical sensitivity after i.t. inhibitor or neutralizing antibody” value with naïve mice [1] (naïve mice, i.t.) is “transient dose-dependent hypersensitivity”. Moreover, in data set [5], the solubility entry is listed as “poor solubility”.

In the case of poly(I:C), the “effect on mechanical thresholds in knockout mice” value in the data set on naïve mice [1] (i.t. 1 μg, knockout genotypes) is “abolished in Ifnar1fx/fx; Nav1.8-Cre and RIG-I−/− mice”. In addition, in the data set on naïve mice [1] (i.t. 1 μg, responsive genotypes), the “mechanical thresholds after i.t. dsDNA or dsRNA analog” value is “elevated mechanical thresholds similarly in Ifnar1fx/fx (WT), STINGgt/gt, and cGAS−/− mice”.

In the case of `O=P(O)(O)C(O)(Cn1ccnc1)P(=O)(O)O` [ZA, Zoledronic acid], the body weight result in [7] (LLC model, twice i.p.) was “no effect on overall body weight”. In the data set on tumor-bearing femora, the “mice with distal bone fractures” value is 25%.

Consider `Nc1nc2c(ncn2[C@@H]2O[C@@H]3COP(=O)(O)O[C@H]4[C@@H](O)[C@H](n5cnc6c(N)ncnc65)O[C@@H]4COP(=O)(O)O[C@H]3[C@H]2O)c(=O)[nH]1` [3′3′-cGAMP], for which, in the data set with naïve mice [1] (naïve mice), the “mechanical sensory thresholds (von Frey)” value is reported as “induced dose-dependent antinociception; also recorded: elevated mechanical thresholds”. Besides, in data set [7] (d11, 4 h after single i.p. injection), the “acute effect on bone cancer pain” value is reported as “could attenuate cold allodynia or/and mechanical allodynia”.

On to `C=C(C)[C@]12C[C@@H](C)[C@@]34O[C@](Cc5ccccc5)(O[C@@H]1[C@@H]3C=C(COC(=O)Cc1ccc(O)c(OC)c1)C[C@]1(O)C(=O)C(C)=C[C@@H]41)O2` [RTX], for which the “heat sensitivity in the hot plate test” value in the data set with naïve mice [8] was “heat insensitivity”.
